In US20250368628A1, “METHODS AND COMPOUNDS FOR MODULATING INHERITED GENETIC DISEASES” (Design Therapeutics, Inc., priority 2022, published 2025):
Read-outs that look alike come from different tables or passages of the source.

Legend:
F35T cells = assay: Foci reduction in FECD (CAG10-Cy3 FISH, foci per nucleus); format: cell-based
Method in brief: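 F35T cells, 5000 per well, were treated for 48 h at 37 °C, 5% CO2 in an 8-point dose response. Cells were then fixed in 4% PFA, permeabilized in 70% ethanol and hybridized overnight at 37 °C with a CAG10-Cy3 probe in 30% formamide/2×SSC. After DAPI staining, imaging gave foci per nucleus.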

[1] = system: Myotonic Dystrophy 1 affected patient fibroblasts (Coriel GM04602; 1600 CTG repeats); assay: DM1 foci reduction assay (EC50 assay; CAG10-Cy3 FISH, foci per nucleus); format: cell-based
Method in brief: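 GM04602 DM1 patient fibroblasts (1600 CTG repeats) seeded 24 h, then treated 48 h at 37 °C with an 8-point 1:3 dose series from 3 μM. Cells PFA-fixed, ethanol-permeabilized and hybridized overnight with 5 nM CAG10-Cy3 probe, DAPI counterstained. Imaged at 20×, 4 fields per well, as average foci per nucleus.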

[2] = F35T cells, 48 h treatment, foci per nucleus; read-out: FECD EC50, 48 h
[3] = Homo sapiens, Fibroblast; DM1 patient fibroblasts, 48 h treatment, foci per nucleus; read-out: DM1 EC50, 48 h
[4] = F35T cells, foci per nucleus, 48 h treatment; read-out: FECD EC50, 48 h
[5] = Homo sapiens, Fibroblast; DM1 patient fibroblasts, foci per nucleus, 48 h treatment; read-out: DM1 EC50, 48 h

| Structure (SMILES) | EC50 (F35T cells; [2]) [nM] | EC50 [1, 3] [nM] | EC50 (F35T cells; [4]) [nM] | EC50 [1, 5] [nM] |
| --- | --- | --- | --- | --- |
| CC(=O)N1CCC(C#CC#CC2CCN(CCCNC(=O)c3nc(NC(=O)c4cc(NC(=O)CCNC(=O)c5nc(NC(=O)CCCNC(=O)c6cc(NC(=O)c7nc(NC(=O)CCNC(=O)c8cc(NC(=O)c9nccn9C)cn8C)cn7C)cn6C)cn5C)cn4C)cn3C)CC2)CC1 [Compound B-251] | < 100 | < 100 |  |  |
| CN(C)Cc1ncc(C2CN(C(=O)CCNC(=O)c3nc(NC(=O)c4cc(NC(=O)CCNC(=O)c5nc(NC(=O)CCCNC(=O)c6cc(NC(=O)c7nc(NC(=O)CCNC(=O)c8cc(NC(=O)c9nccn9C)cn8C)cn7C)cn6C)cn5C)cn4C)cn3C)C2)[nH]1 [Compound B-69] | 100 to 500 | 100 to 500 |  |  |
| Cn1cc(NC(=O)c2nc(NC(=O)CCNC(=O)c3cc(NC(=O)c4nccn4C)cn3C)cn2C)cc1C(=O)NCCCC(=O)Nc1cn(C)c(C(=O)NCCC(=O)Nc2cc(C(=O)Nc3cn(C)c(C(=O)NCCC(=O)NCCOCCOCCOCCN4CCC(C#CC#CC5CCN(C(=O)C(C)(C)C)CC5)CC4)n3)n(C)c2)n1 [Compound B-123] | 100 to 500 | < 100 |  |  |
| Cn1cc(NC(=O)c2nc(NC(=O)CCNC(=O)c3cc(NC(=O)c4nccn4C)cn3C)cn2C)cc1C(=O)NCCCC(=O)Nc1cn(C)c(C(=O)NCCC(=O)Nc2cc(C(=O)Nc3cn(C)c(C(=O)NCCC(=O)NCCCCN=[N+]=[N-])n3)n(C)c2)n1 [Compound B-45] | 500 to 1000 | < 100 |  |  |
| CCN(CC)CCCC[C@@H](NC(C)=O)C(=O)Nc1ccc(OCCOCCOCCNC(=O)CCNC(=O)c2nc(NC(=O)c3cc(NC(=O)CCNC(=O)c4nc(NC(=O)CCCNC(=O)c5cc(NC(=O)c6nc(NC(=O)CCNC(=O)c7cc(NC(=O)c8nccn8C)cn7C)cn6C)cn5C)cn4C)cn3C)cn2C)cc1 [Compound B-148] | 100 to 500 | > 1000 |  |  |
| Cn1cc(NC(=O)c2nc(NC(=O)CCNC(=O)c3cc(NC(=O)c4nccn4C)cn3C)cn2C)cc1C(=O)NCCCC(=O)Nc1cn(C)c(C(=O)NCCC(=O)Nc2cc(C(=O)Nc3cn(C)c(C(=O)NCCC(=O)N4CCN(CCOCCOCCOCCOCCNC(=O)OC(C)(C)C)CC4)n3)n(C)c2)n1 [Compound B-27] | 100 to 500 | 100 to 500 |  |  |
| COCCOCCOCCOCCN(CCOCCOCCOCCOC)C(=O)CCCCn1cc(NC(=O)c2nc(NC(=O)CCNC(=O)c3cc(NC(=O)c4nccn4C)cn3C)cn2C)cc1C(=O)NCCCC(=O)Nc1cn(C)c(C(=O)NCCC(=O)Nc2cc(C(=O)Nc3cn(C)c(C(=O)NCCC(=O)NCCOCCOCCOCCN4CCC(C#CC#CC5CCNCC5)CC4)n3)n(C)c2)n1 [Compound B-229] | > 1000 | > 1000 |  |  |
| CCCNC(=O)c1cc(NC(=O)CCNC(=O)c2nc(NC(=O)CCCNC(=O)c3cc(NC(=O)c4nc(NC(=O)CCNC(=O)c5cc(NC(=O)c6nccn6C)cn5C)cn4C)cn3C)cn2C)cn1C [Compound B-209] | > 1000 | > 1000 |  |  |
| Cn1cc(NC(=O)c2nc(NC(=O)CCNC(=O)c3cc(NC(=O)c4nccn4C)cn3C)cn2C)cc1C(=O)NCCCC(=O)Nc1cn(C)c(C(=O)NCCC(=O)Nc2cc(C(=O)Nc3cn(C)c(C(=O)NCCCN=C(N)N)n3)n(C)c2)n1 [Compound B-205] | < 100 | < 100 |  |  |
| COC(=O)c1cccc(C#CCCCN(C)CCCNC(=O)c2nc(NC(=O)c3cc(NC(=O)CCNC(=O)c4nc(NC(=O)CCCNC(=O)c5cc(NC(=O)c6nc(NC(=O)CCNC(=O)c7cc(NC(=O)c8nccn8C)cn7C)cn6C)cn5C)cn4C)cn3C)cn2C)c1 [Compound B-341] | < 100 | < 100 |  |  |
| COCCOCCOCCOCCN(CCOCCOCCOCCOC)C(=O)CCCCn1cc(NC(=O)c2nc(NC(=O)CCNC(=O)c3cc(NC(=O)c4nccn4C)cn3C)cn2C)cc1C(=O)NCCCC(=O)Nc1cn(C)c(C(=O)NCCC(=O)Nc2cc(C(=O)Nc3cn(C)c(C(=O)NCCC(=O)N4CCC(N5CCNCC5)CC4)n3)n(C)c2)n1 [Compound B-164] | 100 to 500 | 500 to 1000 |  |  |
| CN(CCCNC(=O)c1cccc(C(=O)O)c1)CCCNC(=O)c1cc(NC(=O)CCNC(=O)c2nc(NC(=O)[C@H](N)CCNC(=O)c3cc(NC(=O)c4nc(NC(=O)CCNC(=O)c5cc(NC(=O)c6nccn6C)cn5C)cn4C)cn3C)cn2C)cn1C [Compound B-368] | > 1000 | > 1000 |  |  |
| CN(CCCNC(=O)CCNC(=O)c1nc(NC(=O)c2cc(NC(=O)CCNC(=O)c3nc(NC(=O)CCCNC(=O)c4cc(NC(=O)c5nc(NC(=O)CCNC(=O)c6cc(NC(=O)c7nccn7C)cn6C)cn5C)cn4C)cn3C)cn2C)cn1C)CCCNC(=O)c1cccc(C(=O)O)c1 [Compound B-35] | 100 to 500 | 500 to 1000 |  |  |
| Cn1cc(NC(=O)c2nc(NC(=O)CCNC(=O)c3cc(NC(=O)c4nccn4C)cn3C)cn2C)cc1C(=O)NCCCC(=O)Nc1cn(C)c(C(=O)NCCC(=O)Nc2cc(C(=O)Nc3cn(C)c(C(=O)NCCC(=O)NCCOCCOCCOCCN4CCC(C#CC#CC5CCN(C(=O)OC(C)(C)C)CC5)CC4)n3)n(C)c2)n1 [Compound B-17] | < 100 | < 100 |  |  |
| CN(CCCNC(=O)c1cccc(C(=O)OC(C)(C)C)c1)CCCNC(=O)c1nc(NC(=O)c2cc(NC(=O)CCNC(=O)c3nc(NC(=O)CCCNC(=O)c4cc(NC(=O)c5nc(NC(=O)CCNC(=O)c6cc(NC(=O)c7nccn7C)cn6C)cn5C)cn4CCCCCCN=[N+]=[N-])cn3C)cn2C)cn1C [Compound B-365] | 100 to 500 | < 100 |  |  |
| CCCNC(=O)CCNC(=O)c1nc(NC(=O)c2cc(NC(=O)CCNC(=O)c3nc(NC(=O)CCCNC(=O)c4cc(NC(=O)c5nc(NC(=O)CCNC(=O)c6cc(NC(=O)c7nccn7C)cn6C)cn5C)cn4CCCCCNC(=O)C(C)(C)C)cn3C)cn2C)cn1C [Compound B-398] | 100 to 500 | 100 to 500 |  |  |
| CCCNC(=O)CCNC(=O)c1nc(NC(=O)c2cc(NC(=O)CCNC(=O)c3nc(NC(=O)CCCNC(=O)c4cc(NC(=O)c5nc(NC(=O)CCNC(=O)c6cc(NC(=O)c7nccn7C)cn6C)cn5C)c[nH]4)cn3C)cn2C)cn1C [Compound B-396] | 100 to 500 | 100 to 500 |  |  |
| CC(C)C(=O)N1CCC(C#CC#CC2CCN(CCOCCOCCOCCNC(=O)CCNC(=O)c3nc(NC(=O)c4cc(NC(=O)CCNC(=O)c5nc(NC(=O)CCCNC(=O)c6cc(NC(=O)c7nc(NC(=O)CCNC(=O)c8cc(NC(=O)c9nccn9C)cn8C)cn7C)cn6C)cn5C)cn4C)cn3C)CC2)CC1 [Compound B-122] | 100 to 500 | 100 to 500 |  |  |
| CN(C)c1ccc(C#CCNC(=O)CCNC(=O)c2nc(NC(=O)c3cc(NC(=O)CCNC(=O)c4nc(NC(=O)CCCNC(=O)c5cc(NC(=O)c6nc(NC(=O)CCNC(=O)c7cc(NC(=O)c8nccn8C)cn7C)cn6C)cn5C)cn4C)cn3C)cn2C)cc1 [Compound B-135] | 100 to 500 | < 100 |  |  |
| CCCNC(=O)CCNC(=O)c1nc(NC(=O)c2cc(NC(=O)CCNC(=O)c3nc(NC(=O)CCCNC(=O)c4cc(NC(=O)c5nc(NC(=O)CCNC(=O)c6cc(NC(=O)c7nccn7C)cn6C)cn5C)cn4CCCCNC(C)=O)cn3C)cn2C)cn1C [Compound B-282] | < 100 | 100 to 500 |  |  |
| C=C(NCCC(=O)Nc1cc(C(=O)Nc2cn(C)c(C(=O)NCCC(=O)NCCC)n2)n(C)c1)c1nc(NC(=O)CCCNC(=O)c2cc(NC(=O)c3nc(NC(=O)CCNC(=O)c4cc(NC(=O)c5nccn5C)cn4C)cn3C)cn2CCCn2cc(COCCOCCOCCOC)nn2)cn1C [Compound B-401] | < 100 | 100 to 500 |  |  |
| CN1CCN(CCCNC(=O)CCNC(=O)c2nc(NC(=O)c3cc(NC(=O)CCNC(=O)c4nc(NC(=O)CCCNC(=O)c5cc(NC(=O)c6nc(NC(=O)CCNC(=O)c7cc(NC(=O)c8nccn8C)cn7C)cn6C)cn5C)cn4C)cn3C)cn2C)CC1 [Compound B-36] | 100 to 500 | 100 to 500 |  |  |
| CCCNC(=O)CCNC(=O)c1nc(NC(=O)c2cc(NC(=O)CCNC(=O)c3nc(NC(=O)CCCNC(=O)c4cc(NC(=O)c5nc(NC(=O)CCNC(=O)c6cc(NC(=O)c7nccn7C)cn6C)cn5C)cn4CCOCCN)cn3C)cn2C)cn1C [Compound B-295] | 100 to 500 | 100 to 500 |  |  |
| CCCNC(=O)CCNC(=O)c1nc(NC(=O)c2cc(NC(=O)CCNC(=O)c3nc(NC(=O)CCCNC(=O)c4cc(NC(=O)c5nc(NC(=O)CCNC(=O)c6cc(NC(=O)c7nccn7C)cn6C)cn5C)cn4CCCCN=[N+]=[N-])cn3C)cn2C)cn1C [Compound B-278] | < 100 | < 100 |  |  |
| CCCNC(=O)c1nc(NC(=O)c2cc(NC(=O)CCNC(=O)c3nc(NC(=O)C[C@@H](N)CNC(=O)c4cc(NC(=O)c5nc(NC(=O)CCNC(=O)c6cc(NC(=O)c7nccn7C)cn6C)cn5C)cn4C)cn3C)cn2C)cn1C [Compound B-421] |  |  | < 100 | < 100 |
| CCCNC(=O)CCNC(=O)c1nc(NC(=O)c2cc(NC(=O)CCNC(=O)c3nc(NC(=O)CCCNC(=O)c4cc(NC(=O)c5nc(NC(=O)CCNC(=O)c6cc(NC(=O)c7nccn7C)cn6C)cn5C)cn4CCCO)cn3C)cn2C)cn1C [Compound B-431] |  |  | < 100 | < 100 |
| Cn1cc(NC(=O)c2nc(NC(=O)CCNC(=O)c3cc(NC(=O)c4nccn4C)cn3C)cn2C)cc1C(=O)NCCCC(=O)Nc1cn(C)c(C(=O)NCCC(=O)Nc2cc(C(=O)Nc3cn(C)c(C(=O)NCCC(=O)NCCOCCN4CCC(C#CC#CC5CCN(C(=O)OC(C)(C)C)CC5)CC4)n3)n(C)c2)n1 [Compound B-19] | 100 to 500 | < 100 |  |  |
| Cn1cc(NC(=O)c2nc(NC(=O)CCNC(=O)c3cc(NC(=O)c4nccn4C)cn3C)cn2C)cc1C(=O)NCCCC(=O)Nc1cn(C)c(C(=O)NCCC(=O)Nc2cc(C(=O)Nc3cn(C)c(C(=O)NCCC(=O)N4CCC(C#CC#CC5CCOCC5)CC4)n3)n(C)c2)n1 [Compound B-380] | < 100 | < 100 |  |  |
